Experimental data as given in US20220167618A1, “PESTICIDALLY ACTIVE AZOLE-AMIDE COMPOUNDS” (SYNGENTA CROP PROTECTION AG, priority 2019, published 2022).

What was measured:
Format in all cases: in vivo
[1] = system: Diabrotica balteata (Corn Root Worm); experiment: Example B1: Diabrotica balteata (corn root worm), sprayed maize sprouts; details: 96 h, application rate 200 ppm, L2 larvae, 4 days after infestation, read-out: control in at least one of the two categories (mortality or growth inhibition)
Experimental: Example B1: Diabrotica balteata (Corn Root Worm)
Maize sprouts placed onto an agar layer in 24-well microtiter plates were treated with aqueous test solutions prepared from 10′000 ppm DMSO stock solutions by spraying. After drying, the plates were infested with L2 larvae (6 to 10 per well). The samples were assessed for mortality and growth inhibition in comparison to untreated samples 4 days after infestation.

[2] = system: Spodoptera littoralis (Egyptian Cotton Leaf Worm); experiment: Example B9: Spodoptera littoralis (Egyptian cotton leaf worm), sprayed cotton leaf discs; details: foliar, 72 h, application rate 200 ppm, L1 larvae, 3 days after infestation, read-out: control in at least one of the three categories (mortality, anto-feedant or growth inhibition)
[3] = system: Plutella xylostella (Diamond Back Moth); experiment: Example B5: Plutella xylostella (diamond back moth), artificial diet, 24-well; details: 192 h, application rate 200 ppm, eggs, 8 days after infestation, read-out: control in at least one of the two categories (mortality or growth inhibition)
Experimental: Example B5: Plutella xylostella (Diamond Back Moth)
24-well microtiter plates with artificial diet were treated with aqueous test solutions prepared from 10′000 ppm DMSO stock solutions by pipetting. After drying, Plutella eggs were pipetted through a plastic stencil onto a gel blotting paper and the plate was closed with it. The samples were assessed for mortality and growth inhibition in comparison to untreated samples 8 days after infestation.

[4] = system: Chilo suppressalis (Striped Rice Stemborer); experiment: Example B4: Chilo suppressalis (striped rice stemborer), artificial diet; details: 144 h, application rate 200 ppm, L2 larvae, 6 days after infestation, read-out: control in at least one of the three categories (mortality, anti-feedant or growth inhibition)
Experimental: Example B4: Chilo suppressalis (Striped Rice Stemborer)
24-well microtiter plates with artificial diet were treated with aqueous test solutions prepared from 10′000 ppm DMSO stock solutions by pipetting. After drying, the plates were infested with L2 larvae (6-8 per well). The samples were assessed for mortality, anti-feeding effect, and growth inhibition in comparison to untreated samples 6 days after infestation. Control of Chilo suppressalis by a test sample is given when at least one of the categories mortality, anti-feedant effect, and growth inhibition is higher than the untreated sample.

CC(NC(=O)c1cc(C(F)(F)F)cc(C2(C#N)CC2)c1)c1nc(Br)nn1-c1ncc(OCC(F)F)cn1 (centres unmarked) [Compound P3, N-[1-[5-bromo-2-[5-(2,2-difluoroethoxy)pyrimidin-2-yl]-1,2,4-triazol-3-yl]ethyl]-3-(1-cyanocyclopropyl)-5-(trifluoromethyl)benzamide]
≥ 80%: percent control (mortality or growth inhibition) at 200 ppm [1] | percent control (mortality, anti-feedant or growth inhibition) at 200 ppm [2] | percent control (mortality or growth inhibition) at 200 ppm [3] | percent control (mortality, anti-feedant or growth inhibition) at 200 ppm [4]

CC(NC(=O)c1cc(C(F)(F)F)cc(C(F)(F)C2CC2)c1)c1nc(Br)nn1-c1ncc(OCC(F)F)cn1 (centres unmarked) [Compound P15, N-[1-[5-bromo-2-[5-(2,2-difluoroethoxy)pyrimidin-2-yl]-1,2,4-triazol-3-yl]ethyl]-3-[cyclopropyl(difluoro)methyl]-5-(trifluoromethyl)benzamide]
≥ 80%: percent control (mortality or growth inhibition) at 200 ppm [1] | percent control (mortality, anti-feedant or growth inhibition) at 200 ppm [2] | percent control (mortality or growth inhibition) at 200 ppm [3] | percent control (mortality, anti-feedant or growth inhibition) at 200 ppm [4]

CC(NC(=O)c1cc(C2CC2)cc(C(F)(F)F)c1)c1nc(Br)nn1-c1ccc(C#N)cn1 (centres unmarked) [Compound P19, N-[1-[5-bromo-2-(5-cyano-2-pyridyl)-1,2,4-triazol-3-yl]ethyl]-3-cyclopropyl-5-(trifluoromethyl)benzamide]
≥ 80%: percent control (mortality or growth inhibition) at 200 ppm [1] | percent control (mortality, anti-feedant or growth inhibition) at 200 ppm [2] | percent control (mortality or growth inhibition) at 200 ppm [3] | percent control (mortality, anti-feedant or growth inhibition) at 200 ppm [4]

CC(NC(=O)c1cc(C(F)(F)F)cc(S(=O)(=O)C(F)(F)F)c1)c1nc(Br)nn1-c1ccc(C#N)cn1 (centres unmarked) [Compound P17, N-[1-[5-bromo-2-(5-cyano-2-pyridyl)-1,2,4-triazol-3-yl]ethyl]-3-(trifluoromethyl)-5-(trifluoromethylsulfonyl)benzamide]
≥ 80%: percent control (mortality or growth inhibition) at 200 ppm [1] | percent control (mortality, anti-feedant or growth inhibition) at 200 ppm [2] | percent control (mortality or growth inhibition) at 200 ppm [3] | percent control (mortality, anti-feedant or growth inhibition) at 200 ppm [4]

CC(NC(=O)c1cc(C2CC2)cc(C(F)(F)F)c1)c1nc(Br)nn1-c1ccc(OCC(F)(F)F)cn1 (centres unmarked) [Compound P28, N-[1-[5-bromo-2-[5-(2,2,2-trifluoroethoxy)-2-pyridyl]-1,2,4-triazol-3-yl]ethyl]-3-cyclopropyl-5-(trifluoromethyl)benzamide]
≥ 80%: percent control (mortality or growth inhibition) at 200 ppm [3] | percent control (mortality, anti-feedant or growth inhibition) at 200 ppm [4]

CC(NC(=O)c1cc(C2CC2)nc(C(F)(F)F)c1)c1nc(Br)nn1-c1ccc(C#N)cn1 (centres unmarked) [Compound P20, N-[1-[5-bromo-2-(5-cyano-2-pyridyl)-1,2,4-triazol-3-yl]ethyl]-2-cyclopropyl-6-(trifluoromethyl)pyridine-4-carboxamide]
≥ 80%: percent control (mortality or growth inhibition) at 200 ppm [1] | percent control (mortality, anti-feedant or growth inhibition) at 200 ppm [2] | percent control (mortality or growth inhibition) at 200 ppm [3] | percent control (mortality, anti-feedant or growth inhibition) at 200 ppm [4]

CC(NC(=O)c1cc(C(F)(F)F)cc(C(C)(C)C#N)c1)c1nc(Br)nn1-c1ncc(OCC(F)(F)F)cn1 (centres unmarked) [Compound P39, N-[1-[5-bromo-2-[5-(2,2,2-trifluoroethoxy)pyrimidin-2-yl]-1,2,4-triazol-3-yl]ethyl]-3-(1-cyano-1-methyl-ethyl)-5-(trifluoromethyl)benzamide]
≥ 80%: percent control (mortality or growth inhibition) at 200 ppm [1] | percent control (mortality, anti-feedant or growth inhibition) at 200 ppm [2] | percent control (mortality or growth inhibition) at 200 ppm [3] | percent control (mortality, anti-feedant or growth inhibition) at 200 ppm [4]

CC(NC(=O)c1cc(C2CC2C(F)(F)F)cc(C(F)(F)F)c1)c1nc(Br)nn1-c1ccc(C#N)cn1 (centres unmarked) [Compound P16, N-[1-[5-bromo-2-(5-cyano-2-pyridyl)-1,2,4-triazol-3-yl]ethyl]-3-(trifluoromethyl)-5-[2-(trifluoromethyl)cyclopropyl]benzamide]
≥ 80%: percent control (mortality or growth inhibition) at 200 ppm [1] | percent control (mortality, anti-feedant or growth inhibition) at 200 ppm [2] | percent control (mortality or growth inhibition) at 200 ppm [3] | percent control (mortality, anti-feedant or growth inhibition) at 200 ppm [4]

CC(NC(=O)c1cc(C2CC2C(F)(F)F)cc(C(F)(F)F)c1)c1nc(Br)nn1-c1ncc(OCC(F)F)cn1 (centres unmarked) [Compound P13, N-[1-[5-bromo-2-[5-(2,2-difluoroethoxy)pyrimidin-2-yl]-1,2,4-triazol-3-yl]ethyl]-3-(trifluoromethyl)-5-[2-(trifluoromethyl)cyclopropyl]benzamide]
≥ 80%: percent control (mortality or growth inhibition) at 200 ppm [1] | percent control (mortality, anti-feedant or growth inhibition) at 200 ppm [2] | percent control (mortality or growth inhibition) at 200 ppm [3] | percent control (mortality, anti-feedant or growth inhibition) at 200 ppm [4]

CC(NC(=O)c1cc(C(F)(F)F)cc(C2(C#N)CC2)c1)c1nc(Br)nn1-c1ccc(OCC(F)(F)F)cn1 (centres unmarked) [Compound P23, N-[1-[5-bromo-2-[5-(2,2,2-trifluoroethoxy)-2-pyridyl]-1,2,4-triazol-3-yl]ethyl]-3-(1-cyanocyclopropyl)-5-(trifluoromethyl)benzamide]
≥ 80%: percent control (mortality, anti-feedant or growth inhibition) at 200 ppm [2] | percent control (mortality or growth inhibition) at 200 ppm [3] | percent control (mortality, anti-feedant or growth inhibition) at 200 ppm [4]

CC(NC(=O)c1cc(C2CC2)cc(C(F)(F)F)c1)c1nc(Br)nn1-c1ccc(OC(F)F)cn1 (centres unmarked) [Compound P25, N-[1-[5-bromo-2-[5-(difluoromethoxy)-2-pyridyl]-1,2,4-triazol-3-yl]ethyl]-3-cyclopropyl-5-(trifluoromethyl)benzamide]
≥ 80%: percent control (mortality or growth inhibition) at 200 ppm [1] | percent control (mortality, anti-feedant or growth inhibition) at 200 ppm [2] | percent control (mortality or growth inhibition) at 200 ppm [3] | percent control (mortality, anti-feedant or growth inhibition) at 200 ppm [4]

CC(NC(=O)c1cc(C(F)(F)F)cc(C2(C#N)CC2)c1)c1nc(Br)nn1-c1ncc(OCC(F)(F)F)cn1 (centres unmarked) [Compound P10, N-[1-[5-bromo-2-[5-(2,2,2-trifluoroethoxy)pyrimidin-2-yl]-1,2,4-triazol-3-yl]ethyl]-3-(1-cyanocyclopropyl)-5-(trifluoromethyl)benzamide]
≥ 80%: percent control (mortality or growth inhibition) at 200 ppm [1] | percent control (mortality, anti-feedant or growth inhibition) at 200 ppm [2] | percent control (mortality or growth inhibition) at 200 ppm [3] | percent control (mortality, anti-feedant or growth inhibition) at 200 ppm [4]

CC(NC(=O)c1cc(C(F)(F)F)cc(C(C)(C)C#N)c1)c1nc(Br)nn1-c1ccc(OCC(F)(F)F)cn1 (centres unmarked) [Compound P41, N-[1-[5-bromo-2-[5-(2,2,2-trifluoroethoxy)-2-pyridyl]-1,2,4-triazol-3-yl]ethyl]-3-(1-cyano-1-methyl-ethyl)-5-(trifluoromethyl)benzamide]
≥ 80%: percent control (mortality or growth inhibition) at 200 ppm [3] | percent control (mortality, anti-feedant or growth inhibition) at 200 ppm [4]

CC(NC(=O)c1cc(C(F)(F)F)cc(C(C)(C)C#N)c1)c1nc(Br)nn1-c1ncc(OCC(F)F)cn1 (centres unmarked) [Compound P38, N-[1-[5-bromo-2-[5-(2,2-difluoroethoxy)pyrimidin-2-yl]-1,2,4-triazol-3-yl]ethyl]-3-(1-cyano-1-methyl-ethyl)-5-(trifluoromethyl)benzamide]
≥ 80%: percent control (mortality or growth inhibition) at 200 ppm [1] | percent control (mortality, anti-feedant or growth inhibition) at 200 ppm [2] | percent control (mortality or growth inhibition) at 200 ppm [3] | percent control (mortality, anti-feedant or growth inhibition) at 200 ppm [4]

CC(NC(=O)c1cc(C(F)(F)F)cc(C(F)(F)C2CC2)c1)c1nc(Br)nn1-c1ncc(OCC(F)(F)F)cn1 (centres unmarked) [Compound P9, N-[1-[5-bromo-2-[5-(2,2,2-trifluoroethoxy)pyrimidin-2-yl]-1,2,4-triazol-3-yl]ethyl]-3-[cyclopropyl(difluoro)methyl]-5-(trifluoromethyl)benzamide]
≥ 80%: percent control (mortality, anti-feedant or growth inhibition) at 200 ppm [2] | percent control (mortality or growth inhibition) at 200 ppm [3] | percent control (mortality, anti-feedant or growth inhibition) at 200 ppm [4]

CC(NC(=O)c1cc(C2CC2(F)F)cc(C(F)(F)F)c1)c1nc(Br)nn1-c1ccc(OCC(F)(F)F)cn1 (centres unmarked) [Compound P29, N-[1-[5-bromo-2-[5-(2,2,2-trifluoroethoxy)-2-pyridyl]-1,2,4-triazol-3-yl]ethyl]-3-(2,2-difluorocyclopropyl)-5-(trifluoromethyl)benzamide]
≥ 80%: percent control (mortality or growth inhibition) at 200 ppm [3] | percent control (mortality, anti-feedant or growth inhibition) at 200 ppm [4]
